Experimental data as given in paper PMC4459817, “Vasculotide reduces endothelial permeability and tumor cell extravasation in the absence of binding to or agonistic activation of Tie2” (EMBO Molecular Medicine, 2015).

Assays:
[1] = system: mouse model of skin toxicity from cancer radiotherapy; details: ref Korpela et al, 2014; cited from earlier work
From the text: (§1) For therapeutic use, recombinant variants or mimetics of multimeric Ang1 have been engineered, including Ang1* and Ang-F1-Fc-F1/Bow-Ang1 (Davis et al, [2003]; Daly et al, [2013]), MAT-Ang1 and COMP-Ang1 (Cho et al, [2004]; Koh, [2013]). […] The development of VT was inspired by a 2004 paper, where several heptapeptides—with no sequence homology to Ang1—were identified to have Tie2-binding potential through an ...

[2] = system: in vivo model of abdominal sepsis; details: ref Kumpers et al, 2011; cited from earlier work
From the text: as §1

[3] = system: lung vascular hyperpermeability in endotoxemic mice; details: ref David et al, 2011; cited from earlier work
From the text: as §1

Tie2 = details: PEGylated VT, earlier reports; ref not printed at the statement; cited from earlier work
From the text: as §1

[4] = system: human microvascular ECs of dermal blood vessel origin (HMVEC-DBl); experiment: modified Boyden chamber, thrombin-stimulated FITC-dextran permeability, HMVEC-DBl; assay type: cell-based; details: Fig1D
Method: ECs were first treated with Vasculotide (VT), PBS (vehicle/negative control), Ang1 (positive control), PEG-Cys (polyethylene glycol backbone), T7c (non-PEGylated CHHHRHSF peptides), or VT in the presence of 100-fold molar excess of T7c. The concentrations used, 10–20 ng/mL VT and 200–400 ng/mL Ang1, are estimated molar equivalents (0.71–1.43 nM). Thirty minutes later, ECs were stimulated with thrombin, 0.1% BSA (vehicle/negative control), or EDTA (positive control). Another 30mins later, the amount of FITC-dextran diffusion into the lower chambers (A, D) provides a measure of endothelial permeability. CMTPX-labeled tumor cells (TCs) were then dispensed into inserts, and the amount of TC fluorescence emitting from the underside of insert membranes after 20 h (B–C) or 28 h (E) reflects the efficiency of trans-endothelial TC migration. Representative fluorescent images (10×) of membrane undersides are shown in (C), where DAPI-stained nuclei of ECs/TCs are shown in blue, ‘extravasated’ CMTPX-labeled TCs are shown in red, and the # of CMTPX^+ pixels are shown numerically in red. Means ± SEM are shown (A,B,D,E). Three experiments (twice with HMVEC-LBl and once with HMVEC-DBl) were run with n = 3–5 inserts (independent biological replicates) per group and analyzed by two-sampled unpaired t-tests. […]
Endothelial cells (ECs) were grown on cell culture inserts with uncoated 8-μm-pore PET filter membranes to 100% confluency. […] After 30 min of thrombin stimulation or 4–6 h of TC-CM stimulation, FITC fluorescence (ex/em = 490/520 nm) was measured from a 50 μl sample of the lower chamber media. […] CMPTX fluorescence from migrated TCs was then quantified from 10× microscopy images using a MATLAB (MathWorks, Natick, MA, USA) script; five images (technical replicates) were analyzed per insert. […]

[5] = system: pancreatic neuroendocrine tumors; details: ref Paez-Ribes et al, 2009; cited from earlier work
From the text: There are at least two plausible explanations for this differential impact of SU on hematogenous metastasis (to lung/liver) vs. lymphogenous metastasis (to LNs). Paez-Ribes et al ...

For “CHHHRHSF [Vasculotide, 4-armed maleimide-functionalized polyethylene glycol (PEG) backbone to link together four cysteine-capped T7 peptides, that is, CHHHRHSF]”, the wound healing [1] is given as “promoted wound healing”, the intraperitoneal leukocyte influx [2] is given as “reduced intraperitoneal leukocyte influx” and the “inflammatory induction of lung vascular hyperpermeability” value [3] is given as “prevented inflammatory induction of lung vascular hyperpermeability”. For the same molecule, the Tie2 phosphorylation (Tie2) was “reportedly activates Tie2 phosphorylation”, the “anti-permeability effect of VT in presence of 100-fold molar excess of T7c” value ([4]; HMVEC-DBl) was “dampened the effects of VT” and the “transendothelial permeability of FITC-dextran” value ([4]; thrombin-stimulated HMVEC-DBl, VT 10–20 ng/mL, FITC fluorescence ex/em 490/520 nm, n = 3–5 inserts) was “counteract thrombin-stimulated increases in transendothelial permeability of FITC-dextran (P < 0.05”.

For `CCN(CC)CCNC(=O)c1c(C)[nH]c(/C=C2\C(=O)Nc3ccc(F)cc32)c1C` [sunitinib, reference compound], the “metastasis to the liver but not the lymph nodes” value [5] is listed as “increased metastasis to the liver but not the lymph nodes”.
